Reference: US20130210794A1, “NANOSTRUCTURED EZETIMIBE COMPOSITIONS, PROCESS FOR THE PREPARATION THEREOF AND PHARMACEUTICAL COMPOSITIONS CONTAINING THEM” (priority 2010, published 2013)

Tests used:
[1] = PAMPA permeability measurement (Example 5); format: in vitro ADME; details: redispersed in distilled water; receiver phosphate buffered saline with 1% sodium lauryl sulphate; UV at 248 nm
Procedure: Reference Ezetimibe and solid nanostructured Ezetimibe was redispersed in distilled water and permeability was measured across and artificial membrane composed of dodecane with 20% soy lecithin. The sample containing the reference compound was a suspension of crystals visible by the naked eye, while the nanostructured sample was an opalescent colloid solution. The receiver compartment was phosphate buffered saline with 1% sodium lauryl sulphate.

[2] = cited from earlier work
[3] = Solubility by UV-VIS measurement (Example 1); format: physicochemical; details: room temperature, UV-VIS at 248 nm, filtered by 100 nm syringe filter
Procedure: The solubility of nanostructured Ezetimibe compared to the reference form of the active compound was determined in distilled water and 0.05% SDS solution by UV-VIS measurements (Thermo Genesys 10S spectrophotometer) at 248 nm wavelength and room temperature. The redispersed sample was filtered by 100 nm disposable syringe filter.

[4] = cited from earlier work; remark: listed apart in the source
human plasma proteins = details: cited from earlier work

SMILES	PAMPA permeability [1]	stability ([2]; ambient temperature)	solubility in ethanol, methanol and acetone (descriptive) ([2]; ethanol, methanol, acetone)	solubility in water (descriptive) ([2]; water)	solubility in 0.05% SDS solution ([3]; 0.05% SDS solution)	solubility in distilled water ([3]; distilled water)	deviation from dose proportionality ([4]; between 5 and 20 mg)	increase of Cmax with food ([4]; consumption of high-fat meals, ZETIA 10-mg tablets) [%]	effect of concomitant food on extent of absorption ([4]; high-fat or non-fat meals, ZETIA 10-mg tablets)	bioavailability (estimated) ([4]; oral)	bound to human plasma proteins (human plasma proteins) [%]	mean peak plasma concentration (Cmax) ([4]; in vivo, po, 10 mg) [µg/mL]	tmax ([4]; in vivo, po, 10 mg) [h]
O=C1[C@H](CC[C@H](O)c2ccc(F)cc2)[C@@H](c2ccc(O)cc2)N1c1ccc(F)cc1 [Ezetimibe, 1-(4-fluorophenyl)-3(R)-[3-(4-fluorophenyl)-3(S)-hydroxypropyl]-4(S)-(4-hydroxyphenyl)-2-azetidinone]	under the detection limit	stable at ambient temperature	freely to very soluble	practically insoluble	under the detection limit	under the detection limit	no substantial deviation from dose proportionality	38	no effect	35-65%	–	–	–
O=C(O)[C@H]1O[C@@H](Oc2ccc([C@@H]3[C@@H](CC[C@H](O)c4ccc(F)cc4)C(=O)N3c3ccc(F)cc3)cc2)[C@H](O)[C@@H](O)[C@@H]1O [Ezetimibe-glucuronide]	–	–	–	–	–	–	–	–	–	–	> 90	0.045 to 0.071	1 to 2
